The source of these data is patent US5656289A, “Pharmaceutical formulations that have a biologically active hydrophilic phase and a chylomicra-containing hydrophobic phase” (priority 1988, dated 1997).

The subject of series [1] is diabetics. The experiment in a line: Biological Example B: blood sugar in diabetics and one healthy volunteer after oral Example 1 liquid microemulsion, Regular Insulin or Diabenase. The following applies: for response of case numbers 1 and 8 (in words): 500 mg tablets per os / 20 units s.c.
Protocol: An appropriate amount of the microemulsion is given in a liquid form per os together with 10 ml of MCT (MCT is a trade mark for a medium chained triglyceride solution by Mead-Johnson & Co. Evansville, Ind., U.S.A.). […] Each ml of the insulin-containing formulation contains approximately 5 units of bovine insulin.
Twelve diabetics (9 IDDM and 3 NIDDM) and one healthy volunteer participate in the study. […] Each subject is given one unit of insulin per kg body weight in the form described above per os.
A short description of series [2]: Biological Example B: serum insulin after oral Example 1 emulsion or s.c. Regular Insulin. The class given is in vivo, human. The text has this:
The results are as follows:

The subject of series [3] is diabetics. The experiment in a line: Biological Example A: blood sugar in diabetics and one healthy volunteer after oral Example 5 capsules or s.c. Regular Insulin. In kind it is in vivo, human.
A short description of series [4]: Biological Example A: serum insulin after oral Example 5 capsules or s.c. Regular Insulin (radioimmunoassay). The class given is in vivo, human. Here is the method:
A total of 17 diabetics (8 Insulin-Dependent and 9 Non-Insulin-Dependent diabetics) and one healthy volunteer are fasted overnight. […] Each capsule contains approximately 10 U of bovine insulin and each subject is given, orally, a dose equivalent to approximately one unit per kg body weight, with about 250 ml of water. Blood sugar levels are measured on blood samples obtained by pricking the finger-tip using a HAEMOGLUKOTEST set 20-800R and a REFLOLUX apparatus (Boehringer Mannheim GmbH, West Germany). In a few cases, serum insulin levels are measured using a radioimmunoassay method. For the serum insulin analyses, the serum samples are decanted into TRASYLOL-containing test tubes and stored at -20° to -35° C. until analysed. (TRASYLOL is a trade mark of Bayer for aprotinin proteinase inhibitor.)

The conditions of series [5]: in vivo; cited from earlier work.
The mark [6] stands for this setting: 15 Units s.c., case 12 IDDM, 0 h (baseline).
Where [7] appears, read: 15 Units s.c., case 12 IDDM, 1 h.
The mark [8] stands for this setting: 15 Units s.c., case 12 IDDM, 3 h.
Where [9] appears, read: 15 Units s.c., case 12 IDDM, 4 h.
[10] abbreviates: 20 Units s.c., case 11 IDDM, 0.5 h.
Setting [11] is: 20 Units s.c., case 11 IDDM, 3 h.
Setting [12] is: 20 Units s.c., case 11 IDDM, 4 h.
[13] abbreviates: 15 Units s.c., case 18 IDDM, 0 h (baseline).
Where [14] appears, read: 15 Units s.c., case 18 IDDM, 1.0 h.
The mark [15] stands for this setting: 15 Units s.c., case 18 IDDM, 2.0 h.

Several values for one entry are separate records, joined by “and”; a condition that tells them apart may be missing. Equal values may be shown once. Some results are limits rather than exact numbers.

Turning to `CCCNC(=O)NS(=O)(=O)c1ccc(Cl)cc1` [Diabenase], the “Blood Sugar” value in series [1] (500 mg per os, case 1 NIDDM, 0 h (baseline)) was 186 mg/dL; in series [1] (500 mg per os, case 8 NIDDM, 1 h), 222 mg/dL; in series [1] (500 mg per os, case 8 NIDDM, 2 h), 205 mg/dL; in series [1] (500 mg per os, cases 1 and 8 NIDDM, 3 h), 164 mg/dL and 174 mg/dL. Also, in series [1], the “response of case numbers 1 and 8 (in words)” value is “poor responders”.
In the case of “Regular Insulin: Regular Insulin (Green Cross Co. of Seoul, Korea), subcutaneously injected”, the “response of case numbers 1 and 8 (in words)” value in series [1] is reported as “poor responders”. Besides, the “Blood Sugar (Table 6)” value was 188 mg/dL in series [1] (setting [6]); 181 mg/dL in series [1] (setting [7]); 160 mg/dL in series [1] (setting [8]); 139 mg/dL in series [1] (setting [9]); 308 mg/dL in series [1] (20 Units s.c., case 11 IDDM, 0 h (baseline)); 181 mg/dL in series [1] (setting [10]). In addition, the “Blood Sugar (Table 6)” value in series [1] (setting [11]) was found to be 87 mg/dL; in series [1] (setting [12]), 115 mg/dL. Moreover, the “Blood Sugar” value in series [1] (15 Units, case 1 NIDDM, 0 h (baseline)) is 201 mg/dL; in series [1] (15 Units, case 1 NIDDM, 1 h) it was 198 mg/dL; in series [1] (15 Units, case 1 NIDDM, 4 h), 185 mg/dL; in series [1] (20 Units, case 8 NIDDM, 3 h), 194 mg/dL; in series [1] (20 Units, case 8 NIDDM, 4 h), 176 mg/dL; in series [1] (20 Units, cases 6 and 8, 0 h (baseline)), 151 mg/dL and 218 mg/dL. The “Blood Sugar” value in series [1] (20 Units, cases 6 and 8, 2 h) is 124 mg/dL and 200 mg/dL; in series [3] (5 units s.c., case 6 NIDDM, 0 h (baseline)), 259 mg/dL; in series [3] (5 units s.c., case 6 NIDDM, 2 h), 376 mg/dL; in series [3] (5 units s.c., case 6 NIDDM, 3 h), 298 mg/dL; in series [3] (15 units s.c., case 5 IDDM, 0 h (baseline)) it was 171 mg/dL; in series [3] (15 units s.c., case 5 IDDM, 1 h), 196 mg/dL. In addition, the “Blood Sugar” value is 161 mg/dL in series [3] (15 units s.c., case 5 IDDM, 2 h); 170 mg/dL in series [3] (15 units s.c., case 5 IDDM, 3 h); 216 mg/dL and 330 mg/dL and 312 mg/dL in series [3] (20 units s.c., poor responders, 0 h (baseline)); 196 mg/dL and 162 mg/dL in series [3] (20 units s.c., poor responders, 1 h); 186 mg/dL and 180 mg/dL in series [3] (20 units s.c., poor responders, 2 h); 180 mg/dL in series [3] (20 units s.c., poor responders, 3 h). Besides, the “Serum Insulin” value was 30 micro-Units/ml in series [2] (setting [6]); 47 micro-Units/ml in series [2] (setting [7]); 112 micro-Units/ml in series [2] (setting [8]); 115 micro-Units/ml in series [2] (setting [9]); 159 micro-Units/ml in series [2] (setting [10]); 78 micro-Units/ml in series [2] (setting [11]). Further, the “Serum Insulin” value in series [2] (setting [12]) amounted to 45 micro-Units/ml; in series [4] (setting [13]), 10 micro-U/ml; in series [4] (setting [14]), 57 micro-U/ml; in series [4] (setting [15]), 184 micro-U/ml; in series [4] (15 Units s.c., case 18 IDDM, 4.0 h), 64 micro-U/ml; in series [4] (20 Units s.c., case 10 NIDDM, 1.0 h), 19 micro-U/ml. In addition, the “Serum Insulin” value in series [4] (20 Units s.c., case 10 NIDDM, 2.0 h) was 11 micro-U/ml. The “response to subcutaneously injected insulin (in words)” value in series [3] (5 to 20 units s.c., case nos. 2, 5, 6, 10, 14) is recorded as “respond poorly”. Moreover, the “Blood Sugar (Table 3)” value in series [3] (setting [13]) stood at 171 mg/dL; in series [3] (setting [14]), 152 mg/dL; in series [3] (setting [15]), 122 mg/dL; in series [3] (15 Units s.c., case 18 IDDM, 3.0 h), 207 mg/dL; in series [3] (15 Units s.c., case 18 IDDM, […]), 131 mg/dL; in series [3] (20 Units s.c., case 10 NIDDM, 0 h (baseline)), 157 mg/dL. The “Blood Sugar (Table 3)” value in series [3] (20 Units s.c., case 10 NIDDM, 0.5 h) is 102 mg/dL; in series [3] (20 Units s.c., case 10 NIDDM, 3.0 h), 106 mg/dL; in series [3] (20 Units s.c., case 10 NIDDM, […]), 77 mg/dL.
For Sorbitan monolaurate, in series [5], the median lethal dose (LD50) (commonly the dose expected to kill half of the subjects tested) is 41000 mg/kg.
Sorbitan monooleate: in series [5], the median lethal dose (LD50) is over 40000 mg/kg.
With Sorbitan monopalmitate, the LD50 in series [5] was over 16000 mg/kg.
Consider Sorbitan monostearate, for which the 50% lethal dose (LD50) in series [5] is 31000 mg/kg.
Consider Sorbitan trioleate, for which the 50% lethal dose (LD50) in series [5] was over 40000 mg/kg.
Regarding Sorbitan tristearate, the LD50 in series [5] is over 16000 mg/kg.
